{"source": "patent US4643989A", "about": "“Inhibition of aldosterone secretion” (The Salk Institute for Biological Studies, priority 1984, dated 1987)", "key": {"[1]": {"test_system": "rat adrenoglomerulosa cells", "test": "Basal secretion of aldosterone by rat glomerulosa cells (radioimmunoassay)", "type": "cell-based", "settings": "for testing as set forth in Example II (inhibition of aldosterone secretion by rat glomerulosa cells): compared with rANF(8-33) results of Example II", "procedure": "(§1) Rat adrenoglomerulosa cells are obtained by enzymatic digest of adrenals harvested from peripubertal male Sprague Dawley rats(Holtzman, 125 g) using previously described methods, and testing is carried out to determine the effect of synthetic rANF(8-33) on the basal secretion of aldosterone by rat glomerulosa cells. Rat glomerulosa cells are prepared by enzymatic digestion of 20 rat adrenals after ennucleation. The cells remaining on the capsule are digested for 30 minutes with a mixture of collagenase and DNase (4 mg/ml, 4 μg/ml). Dispersed cells are filtered through gauze and centrifuged at 800 rpm for 15 minutes. The pellet is resuspended in M199 buffer containing 0.1% bovine serum albumin(BSA), and the cells are centrifuged at 800 rpm for 15 minutes. The cell pellet is again resuspended in M199-0.1% BSA buffer and distributed in 900-μl aliquots to 12×75 plastic tubes. The samples are preincubated for 90 minutes in a 37° C. waterbath under an atmosphere of 5% CO2 -95% O2. Aliquots of the test samples are added in a 100 μl volume and incubated for 4 hours. Aldosterone and corticosterone are measured by radioimmunoassay using antisera purchased from Endocrine Sciences, Oxnard, Calif. and [^3 H]-labelled steroid from New England Nuclear, Boston, Mass. Results are the mean±SEM of 7 replicates. Statistical analysis is performed by analysis of variance, and all points are significant (p<0.01) from control. In concentrations as low as ≤10^-9 M, there is a significant (p<0.01) inhibition of aldosterone synthesis that is even more accentuated when the higher concentrations are tested (p<0.001)."}, "rat glomerulosa cells [2]": {"test_system": "rat glomerulosa cells", "test": "ACTH-stimulated aldosterone secretion by rat glomerulosa cells", "type": "cell-based", "settings": "equimolar amounts of ACTH and peptide; p<0.001 versus secretagogue alone", "procedure": "as §1, with “Aliquots of the test samples are added in a 100 μl volume and incubated for 4 hours.” left out, “Results are the mean±SEM of 7 replicates. Statistical analysis is performed by analysis of variance, and all points are significant (p<0.01) from control. In concentrations as low as ≤10^-9 M, there is a significant (p<0.01) inhibition of aldosterone synthesis that is even more accentuated when the higher concentrations are tested (p<0.001).” left out\n(§2) Similar inhibitory effects on aldosterone formation are obtained when its secretion by the glomerulosa cells in vitro is stimulated with either ACTH or AN-II. […] Aldosterone secretion is measured as above by radioimmunoassay. […]"}, "rat glomerulosa cells [3]": {"test_system": "rat glomerulosa cells", "test": "AN-II-stimulated aldosterone secretion by rat glomerulosa cells", "type": "cell-based", "settings": "equimolar amounts of AN-II and peptide; p<0.001 versus secretagogue alone", "procedure": "as §1, with “Aliquots of the test samples are added in a 100 μl volume and incubated for 4 hours.” left out, “Results are the mean±SEM of 7 replicates. Statistical analysis is performed by analysis of variance, and all points are significant (p<0.01) from control. In concentrations as low as ≤10^-9 M, there is a significant (p<0.01) inhibition of aldosterone synthesis that is even more accentuated when the higher concentrations are tested (p<0.001).” left out\nas §2"}, "rat glomerulosa cells [4]": {"test_system": "rat glomerulosa cells", "test": "Corticosterone formation by rat glomerulosa cells (radioimmunoassay)", "type": "cell-based", "settings": "10^-7 M peptide", "procedure": "as §1\nIn other experiments, ANF(8-33) had no effect on pituitary ACTH secretion."}, "pituitary ACTH secretion": {"test_system": "pituitary ACTH secretion", "test": "Pituitary ACTH secretion", "settings": "other experiments"}}, "note": "Bridges are numbered along the chain shown (N, C = ends).", "data": [{"substance": "H-Arg-Arg-Ser-Ser-Cys-Phe-Gly-Gly-Arg-Met-Asp-Arg-Ile-Gly-Ala-Gln-Ser-Gly- Leu-Gly-Cys-Asn-Ser-Phe-Tyr-OH (H-RRSSCFGGRMDRIGAQSGLGCNSFY-OH; disulfide 5-21; ends not checked) [hANF(8-33)]", "values": [{"measurement": "testing as set forth in Example II (inhibition of aldosterone secretion by rat glomerulosa cells)", "setting": "[1]", "value": "comparable results"}]}, {"substance": "rANF(3-33)--NH2: C-terminal amide of rat ANF fragment 3-33", "values": [{"measurement": "testing as set forth in Example II (inhibition of aldosterone secretion by rat glomerulosa cells)", "setting": "[1]", "value": "comparable results"}]}, {"substance": "rANF(5-33): rat ANF fragment 5-33", "values": [{"measurement": "testing as set forth in Example II (inhibition of aldosterone secretion by rat glomerulosa cells)", "setting": "[1]", "value": "comparable results"}]}, {"substance": "rANF(8-30): rat ANF fragment 8-30", "values": [{"measurement": "testing as set forth in Example II (inhibition of aldosterone secretion by rat glomerulosa cells)", "setting": "[1]", "value": "comparable results"}]}, {"substance": "rANF(8-32)--NH2: C-terminal amide of rat ANF fragment 8-32", "values": [{"measurement": "testing as set forth in Example II (inhibition of aldosterone secretion by rat glomerulosa cells)", "setting": "[1]", "value": "comparable results"}]}, {"substance": "rANF(8-33): 26-residue fragment of rat atrial natriuretic factor with disulfide bond between the Cys residues", "values": [{"measurement": "inhibition of ACTH-stimulated aldosterone secretion", "setting": "rat glomerulosa cells [2]", "value": "significant inhibition of aldosterone secretion"}, {"measurement": "stimulation of aldosterone", "setting": "[1]", "value": "at no point was rANF(8-33) observed to stimulate aldosterone"}, {"measurement": "concentration giving significant inhibition of aldosterone synthesis (basal secretion)", "setting": "[1]; basal, 4 hours incubation, p<0.01 versus control, more accentuated at higher concentrations (p<0.001)", "value": "≤ 10^-9 M"}, {"measurement": "inhibition of AN-II-stimulated aldosterone secretion", "setting": "rat glomerulosa cells [3]", "value": "significant inhibition of aldosterone secretion"}, {"measurement": "basal corticosterone formation", "setting": "rat glomerulosa cells [4]; decrease from 24.7±0.8 ng/ml without peptide", "value": "7.8 ± 0.3", "unit": "ng/mL"}, {"measurement": "AN-II-stimulated corticosterone formation", "setting": "rat glomerulosa cells [4]; decrease from 37.2±1.4 ng/ml without peptide, p<0.001", "value": "21.9 ± 0.9", "unit": "ng/mL"}, {"measurement": "ACTH-stimulated corticosterone formation", "setting": "rat glomerulosa cells [4]; decrease from 43.4±0.7 ng/ml without peptide, p<0.001", "value": "36.1 ± 0.7", "unit": "ng/mL"}, {"measurement": "effect on pituitary ACTH secretion", "setting": "pituitary ACTH secretion", "value": "no effect"}]}]}
